Experimental data published in patent EP1621546B1, “Peptide ligands specific to immonoglobulins” (Tecnogen S.p.A., priority 2004, dated 2008).

Experiments:
[1] = system: immunoglobulins (IgG, IgE, IgM and IgA) present in human serum; assay: Separation and purification of immunoglobulins from raw human serum by affinity chromatography on the resin-immobilized compound (gel electrophoresis and Western blotting of fractions); type: binding; details: compound immobilized on Ultralink Biosupport Medium
Method: (§1) Compound IB (5 mg) prepared according to the preceding Example 1 was dissolved in 5.0 ml of 0.2 M NaHCO3, 0.6 M Na citrate, pH 9.0, and incubated with 130 mg (1 mL) of resin Ultralink Biosupport Medium™ (PIERCE, Rockford, IL, USA), a support for affinity chromatography pre-activated with a function of the azalactone type for direct coupling of peptides and proteins. The suspension was stirred for 12 hours at room temperature and the extent of coupling was monitored by taking samples of the reaction mixture at various times and then analysing by RP-HPLC.
(§2) After 12 hours, approx. 90-95% of the initial peptide had been immobilized covalently on the resin. The derivatized resin was incubated with 0.1 M TRIS, pH 8.5 to block any sites of the resin that are still reactive, and then packed in a glass column 100 x 0.6 mm ID with variable plunger (OMNIFIT™, Cat. No. 006CC-06-10-FF).
(§3) To evaluate the capability of Compound I(B) immobilized on resin according to Example 2 to separate and purify immunoglobulins, the column was equilibrated with buffer 25 mM Bis-Tris (Bis(2-hydroxyethyl)amino-tris(hydroxymethyl)methane, Sigma-Aldrich™, Cat. No. B7535), pH 6.5, at a flow rate of 1 mL/min, monitoring the eluent at 280 nm.
Raw human serum (Sigma-Aldrich™, Cat. No. R9133) was filtered, diluted 1:1 (v/v) with the binding buffer, loaded on the column and, after elution of the unbound material, the eluent was changed to acetic acid (AcH, Sigma-Aldrich™, Cat. No. 46928) 0.1 M, pH 3.0, for eluting the adsorbed material.
The material eluted from the column was neutralized with TRIS 1 M, pH 9.0 and characterized by analysis by polyacrylamide gel electrophoresis and Western blotting (WB) on nitrocellulose for identifying the immunoglobulins retained.

[2] = system: IgG, IgE, IgM and IgA immunoglobulins; assay: Separation and purification of immunoglobulins from raw murine serum by affinity chromatography on the resin-immobilized compound; type: binding; details: compound immobilized on Ultralink Biosupport Medium
Method: as §1, §2
as §3, with “nm. […]” for “nm.”

(NH2-L-Cys-L-Tyr-L-His-L-His)2-L-Lys-L-Gly-OH [Compound I(B)]
retention of the immunoglobulin fraction of the raw serum (electrophoretic analysis) ([1]; raw human serum diluted 1:1, binding buffer 25 mM Bis-Tris pH 6.5, elution with acetic acid 0.1 M pH 3.0): able to retain the immunoglobulin fraction of the raw serum | classes of immunoglobulins retained (WB analysis of the retained material) ([1]; raw human serum, Western blotting on nitrocellulose): retained all the classes of immunoglobulins (IgG, IgE, IgM and IgA) | albumin (selectivity of the column) ([1]; raw human serum, electrophoretic analysis): recovered in the unretained material | albumin (selectivity of the column) [2]: recovered in the unretained material | immunoglobulins retained by the column [2]: able to retain the IgG, IgE, IgM and IgA immunoglobulins
